Results on 21 molecules are retold here after patent US10125134B2 (Mirati Therapeutics, Inc., priority 2016, dated 2018).

The target in assay [1] is KRas G12C (Homo sapiens, UniProt P01116, C118S/C51S/C80L/G12C). In words: KRas G12C Modification Assay (LCMS detection of covalent adduct). Particulars: normalized percent of control; tested at 5 μM concentration for 3 hours. The format is binding. In outline: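 Covalent modification was read by reverse-phase LC/MS of intact protein after compound exposure, each reaction stopped at its time point with 25 mM acetic acid. Unmodified-protein signal, taken as percent of total, was normalised to untreated protein and reported as POC.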

Assay [2] has as its system NCI-H358 cells (express KRas G12C), Phospho-ERK. Kind of assay: Cellular inhibition of KRas G12C: Phospho-ERK in NCI-H358 cells. The format is cell-based. Particulars: Homo sapiens, pERK(Thr202/Tyr204) normalized with GAPDH, NCI-H358 cells, 3 hours, read-out: IC50. In outline: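 IC50 derived by 4-parameter fit of GAPDH-normalized pERK(Thr202/Tyr204) signal, as percent of DMSO control. Signal came from in-cell immunodetection with infrared secondaries after 3 h compound exposure of KRas G12C NCI-H358 cells at 0.5% DMSO.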

Read-outs that look alike come from different tables or passages of the source. Where only a bound is given, the exact number is not on record here.

As to `C=CC(=O)N1CCN(c2nc(OC[C@@H]3CCN(C)C3)nc3c2CCN(c2cc(O)cc4ccccc24)C3)CC1CC#N` (stereo partly drawn) [Example 179, 2-[4-[7-(3-hydroxy-1-naphthyl)-2-[[(3R)-1-methylpyrrolidin-3-yl]methoxy]-6,8-dihydro-5H-pyrido[3,4-d]pyrimidin-4-yl]-1-prop-2-enoyl-piperazin-2-yl]acetonitrile], the POC entry in assay [1] was “C (“C”>50% POC)”. In addition, in assay [2] (NCI-H358, 3 h), the IC50 was in the range of 0.1 to 1000 nM.

For `C=CC(=O)N1CCN(c2nc(OCCCN3CCOCC3)nc3c2CCN(c2c(C(F)(F)F)ccc4[nH]ncc24)C3)CC1` [Example 180, 1-[4-[2-(3-morpholinopropoxy)-7-[5-(trifluoromethyl)-1H-indazol-4-yl]-6,8-dihydro-5H-pyrido[3,4-d]pyrimidin-4-yl]piperazin-1-yl]prop-2-en-1-one], the POC entry in assay [1] is recorded as “C (“C”>50% POC)”. Moreover, in assay [2], the IC50 lay in the range of 0.1 to 1000 nM.

`C=CC(=O)N1CCN(c2nc(OCCCN3C[C@@H]4C[C@H]3CO4)nc3c2CCN(c2c(C)ccc4[nH]ncc24)C3)CC1` [Example 181, 1-(4-(2-(3-((1 S,4S)-2-oxa-5-azabicyclo[2.2.1]heptan-5-yl)propoxy)-7-(5-methyl-1H-indazol-4-yl)-5,6,7,8-tetrahydropyrido[3,4-d]pyrimidin-4-yl)piperazin-1-yl)prop-2-en-1-one]: the POC entry in assay [1] is recorded as “C (“C”>50% POC)”. Moreover, in assay [2], the IC50 is above 1000 nM.

Consider `C=CC(=O)N1CCN(c2nc(OC[C@@H]3CCCN3C)nc3c2CCN(c2cc(O)cc4ccccc24)C3)CC1CC#N` (stereo partly drawn) [Example 182, 2-[4-[7-(3-hydroxy-1-naphthyl)-2-[[(2S)-1-methylpyrrolidin-2-yl]methoxy]-6,8-dihydro-5H-pyrido[3,4-d]pyrimidin-4-yl]-1-prop-2-enoyl-piperazin-2-yl]acetonitrile], for which, in assay [1], the POC result was “C (“C”>50% POC)”. The IC50 in assay [2] was 0.1 to 1000 nM.

Turning to `C=CC(=O)N1CCN(c2nc(OC[C@H]3CCCN3C)nc3c2CCN(c2cccc4ccccc24)C3)CC1CC#N` (stereo partly drawn) [Example 183, 2-[4-[2-[[(2R)-1-methylpyrrolidin-2-yl]methoxy]-7-(1-naphthyl)-6,8-dihydro-5H-pyrido[3,4-d]pyrimidin-4-yl]-1-prop-2-enoyl-piperazin-2-yl]acetonitrile], the POC entry in assay [1] was “C (“C”>50% POC)”. Also, in assay [2], the IC50 fell in the range of 0.1 to 1000 nM.

As to `C=CC(=O)N1CCN(c2nc(OCCCO)nc3c2CCN(c2cc(O)cc4ccccc24)C3)CC1` [Example 184, 1-[4-[7-(3-hydroxy-1-naphthyl)-2-(3-hydroxypropoxy)-6,8-dihydro-5H-pyrido[3,4-d]pyrimidin-4-yl]piperazin-1-yl]prop-2-en-1-one], the POC entry in assay [1] is listed as “C (“C”>50% POC)”. Further, the IC50 in assay [2] (NCI-H358, 3 h) was above 1000 nM.

`C=CC(=O)N1CCN(c2nc(-c3cccc(CN4CCOCC4)c3)nc3c2CCN(c2cc(O)cc4ccccc24)C3)CC1` [Example 186]: the POC result in assay [1] is listed as “B (“B”>25% POC−≤50% POC)”. The IC50 in assay [2] is above 1000 nM.

On to `C=CC(=O)N1CCN(c2nc(OC[C@H]3CCN(C)C3)nc3c2CCN(c2cc(O)cc4ccccc24)C3)CC1` [Example 188, (S)-1-(4-(7-(3-hydroxynaphthalen-1-yl)-2-((1-methylpyrrolidin-3-yl)methoxy)-5,6,7,8-tetrahydropyrido[3,4-d]pyrimidin-4-yl)piperazin-1-yl)prop-2-en-1-one], for which, in assay [1], the POC result is on record as “C (“C”>50% POC)”. Also, in assay [2] (NCI-H358, 3 h), the half-maximal inhibitory concentration (IC50) lay within 0.1 to 1000 nM.

As for `C=CC(=O)N1CCN(c2nc(OCC3CCN(Cc4ccccc4)C3)nc3c2CCN(c2cc(O)cc4ccccc24)C3)CC1` (stereo not drawn) [Example 189, 1-(4-(2-((1-benzylpyrrolidin-3-yl)methoxy)-7-(3-hydroxynaphthalen-1-yl)-5,6,7,8-tetrahydropyrido[3,4-d]pyrimidin-4-yl)piperazin-1-yl)prop-2-en-1-one], the POC entry in assay [1] is “C (“C”>50% POC)”. Also, the IC50 in assay [2] (NCI-H358, 3 h) was above 1000 nM.

On to `C=CC(=O)N1CCN(c2nc(OCC3CCN(C4CC4)C3)nc3c2CCN(c2cc(O)cc4ccccc24)C3)CC1` (stereo not drawn) [Example 190, 1-(4-(2-((1-cyclopropylpyrrolidin-3-yl)methoxy)-7-(3-hydroxynaphthalen-1-yl)-5,6,7,8-tetrahydropyrido[3,4-d]pyrimidin-4-yl)piperazin-1-yl)prop-2-en-1-one], for which, in assay [1], the POC result is “C (“C”>50% POC)”. The IC50 in assay [2] (NCI-H358, 3 h) was 0.1 to 1000 nM.

For `C=CC(=O)N1[C@H](C)CN(c2nc(OCCCN3CCOCC3)nc3c2CCN(c2cc(O)cc4ccccc24)C3)C[C@@H]1C` [Example 191, 1-((2S,6R)-4-(7-(3-hydroxynaphthalen-1-yl)-2-(3-morpholinopropoxy)-5,6,7,8-tetrahydropyrido[3,4-d]pyrimidin-4-yl)-2,6-dimethylpiperazin-1-yl)prop-2-en-1-one], in assay [1], the POC entry is reported as “C (“C”>50% POC)”. Moreover, the IC50 in assay [2] is above 1000 nM.

`C=CC(=O)N1CCN(c2nc(OC[C@@H]3CCCN(C)C3)nc3c2CCN(c2cc(O)cc4ccccc24)C3)CC1` [Example 192, (R)-1-(4-(7-(3-hydroxynaphthalen-1-yl)-2-((1-methylpiperidin-3-yl)methoxy)-5,6,7,8-tetrahydropyrido[3,4-d]pyrimidin-4-yl)piperazin-1-yl)prop-2-en-1-one]: the POC result in assay [1] is “C (“C”>50% POC)”. Also, in assay [2] (NCI-H358, 3 h), the IC50 fell in the range of 0.1 to 1000 nM.

`C=CC(=O)N1CCN(c2nc(OCC3CN(C)CCO3)nc3c2CCN(c2cc(O)cc4ccccc24)C3)CC1` (stereo not drawn) [Example 193, 1-(4-(7-(3-hydroxynaphthalen-1-yl)-2-((4-methylmorpholin-2-yl)methoxy)-5,6,7,8-tetrahydropyrido[3,4-d]pyrimidin-4-yl)piperazin-1-yl)prop-2-en-1-one]: the POC entry in assay [1] was “C (“C”>50% POC)”. In assay [2] (NCI-H358, 3 h), the IC50 was in the range of 0.1 to 1000 nM.

For the molecule `C=CC(=O)N1CCN(c2nc(OCC3COCCN3C)nc3c2CCN(c2cc(O)cc4ccccc24)C3)CC1` (stereo not drawn) [Example 194, 1-(4-(7-(3-hydroxynaphthalen-1-yl)-2-((4-methylmorpholin-3-yl)methoxy)-5,6,7,8-tetrahydropyrido[3,4-d]pyrimidin-4-yl)piperazin-1-yl)prop-2-en-1-one], in assay [1], the POC result is “C (“C”>50% POC)”. In addition, the IC50 in assay [2] (NCI-H358, 3 h) was above 1000 nM.

With `C=CC(=O)N1CCN(c2nc(OC[C@H]3CCCCN3C)nc3c2CCN(c2cc(O)cc4ccccc24)C3)CC1` [Example 195, (R)-1-(4-(7-(3-hydroxynaphthalen-1-yl)-2-((1-methylpiperidin-2-yl)methoxy)-5,6,7,8-tetrahydropyrido[3,4-d]pyrimidin-4-yl)piperazin-1-yl)prop-2-en-1-one], the POC entry in assay [1] is “C (“C”>50% POC)”. For the same molecule, in assay [2] (NCI-H358, 3 h), the IC50 was above 1000 nM.

As to `C=CC(=O)N1CCN(c2nc(OC[C@@H]3CCCCN3C)nc3c2CCN(c2cc(O)cc4ccccc24)C3)CC1` [Example 196, (S)-1-(4-(7-(3-hydroxynaphthalen-1-yl)-2-((1-methylpiperidin-2-yl)methoxy)-5,6,7,8-tetrahydropyrido[3,4-d]pyrimidin-4-yl)piperazin-1-yl)prop-2-en-1-one], in assay [1], the POC result is reported as “C (“C”>50% POC)”. In assay [2] (NCI-H358, 3 h), the IC50 was in the range of 0.1 to 1000 nM.

Regarding `C=CC(=O)N1CCN(c2nc(OC[C@@H]3CCCN3CC)nc3c2CCN(c2cc(O)cc4ccccc24)C3)CC1` [Example 197, (S)-1-(4-(2-((1-ethylpyrrolidin-2-yl)methoxy)-7-(3-hydroxynaphthalen-1-yl)-5,6,7,8-tetrahydropyrido[3,4-d]pyrimidin-4-yl)piperazin-1-yl)prop-2-en-1-one], in assay [1], the POC result is reported as “C (“C”>50% POC)”. Also, the IC50 in assay [2] (NCI-H358, 3 h) was 0.1 to 1000 nM.

Consider `C/C=C/C(=O)N1CCN(c2nc(OC[C@@H]3CCCN3C)nc3c2CCN(c2cc(O)cc4ccccc24)C3)CC1` [Example 198, (S,E)-1-(4-(7-(3-hydroxynaphthalen-1-yl)-2-((1-methylpyrrolidin-2-yl)methoxy)-5,6,7,8-tetrahydropyrido[3,4-d]pyrimidin-4-yl)piperazin-1-yl)but-2-en-1-one], for which the POC entry in assay [1] is on record as “C (“C”>50% POC)”. For the same molecule, in assay [2] (NCI-H358, 3 h), the IC50 was above 1000 nM.

For the molecule `CN(C)C/C=C/C(=O)N1CCN(c2nc(OC[C@@H]3CCCN3C)nc3c2CCN(c2cc(O)cc4ccccc24)C3)CC1` [Example 199, (S,E)-4-(dimethylamino)-1-(4-(7-(3-hydroxynaphthalen-1-yl)-2-((1-methylpyrrolidin-2-yl)methoxy)-5,6,7,8-tetrahydropyrido[3,4-d]pyrimidin-4-yl)piperazin-1-yl)but-2-en-1-one], in assay [1], the POC entry is listed as “C (“C”>50% POC)”. Moreover, the IC50 in assay [2] (NCI-H358, 3 h) was above 1000 nM.

Consider `C=CC(=O)N1CCN(c2nc(OC[C@@H]3CCCN3C)nc3c2CCN(c2cccc4ccccc24)C3)C[C@H]1C` [Example 201, 1-((R)-2-methyl-4-(2-(((S)-1-methylpyrrolidin-2-yl)methoxy)-7-(naphthalen-1-yl)-5,6,7,8-tetrahydropyrido[3,4-d]pyrimidin-4-yl)piperazin-1-yl)prop-2-en-1-one], for which, in assay [1], the POC result is reported as “B (“B”>25% POC−≤50% POC)”. In addition, the IC50 in assay [2] (NCI-H358, 3 h) was above 1000 nM.

Regarding `C=CC(=O)N1CCN(c2nc(OC[C@@H]3CCCN3C)nc3c2CCN(c2cc(O)cc4ccccc24)C3)[C@@H](C)C1` [Example 202, 1-((S)-4-(7-(3-hydroxynaphthalen-1-yl)-2-(((S)-1-methylpyrrolidin-2-yl)methoxy)-5,6,7,8-tetrahydropyrido[3,4-d]pyrimidin-4-yl)-3-methylpiperazin-1-yl)prop-2-en-1-one], in assay [1], the POC result is listed as “C (“C”>50% POC)”. In addition, in assay [2] (NCI-H358, 3 h), the IC50 was in the range of 0.1 to 1000 nM.

As a reminder, the IC50 is the concentration that inhibits the measured activity by half.
